Results on 2 compounds are retold here after US20060205733A1, “Endothelin a receptor antagonists in combination with phosphodiesterase 5 inhibitors and uses thereof” (Encysive Pharmaceuticals, priority 2004, published 2006).

A value given as a limit tells only on which side of the number the result lay.

For one data set, the target named is T1, ETB (Homo sapiens, UniProt P24530).
T1 sequence (P24530 27-442): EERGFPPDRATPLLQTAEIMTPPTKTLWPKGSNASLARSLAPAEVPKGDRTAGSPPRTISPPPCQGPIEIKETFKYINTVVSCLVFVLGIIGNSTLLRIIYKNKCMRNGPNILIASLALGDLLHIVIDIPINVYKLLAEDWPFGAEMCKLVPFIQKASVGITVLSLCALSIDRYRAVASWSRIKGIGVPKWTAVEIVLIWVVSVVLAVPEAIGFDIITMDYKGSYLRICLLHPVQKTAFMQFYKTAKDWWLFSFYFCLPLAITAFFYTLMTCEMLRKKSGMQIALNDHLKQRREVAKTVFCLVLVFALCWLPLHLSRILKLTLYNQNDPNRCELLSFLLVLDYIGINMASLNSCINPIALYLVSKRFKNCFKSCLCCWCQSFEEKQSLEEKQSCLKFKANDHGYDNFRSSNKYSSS
Particulars: read-out: Binding K1 (nM) to ETB; cited from earlier work.

Another data set addresses bile salt export pump (Homo sapiens, UniProt O95342). Particulars: cited from earlier work.
In data set [1] the target is T2, ETA (Homo sapiens, UniProt P25101).
T2 sequence (P25101 21-427): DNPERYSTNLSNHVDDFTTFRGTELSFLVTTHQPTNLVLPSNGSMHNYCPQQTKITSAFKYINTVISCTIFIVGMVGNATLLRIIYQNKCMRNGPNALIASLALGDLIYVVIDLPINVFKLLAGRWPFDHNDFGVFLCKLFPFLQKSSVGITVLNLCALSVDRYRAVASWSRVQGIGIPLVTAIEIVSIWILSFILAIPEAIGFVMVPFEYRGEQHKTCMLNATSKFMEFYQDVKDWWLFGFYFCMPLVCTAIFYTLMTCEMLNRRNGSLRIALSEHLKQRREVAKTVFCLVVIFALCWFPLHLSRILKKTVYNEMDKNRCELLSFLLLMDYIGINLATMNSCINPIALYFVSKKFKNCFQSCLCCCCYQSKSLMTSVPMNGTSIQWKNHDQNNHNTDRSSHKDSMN
Particulars: ETA versus ETB, Table 2; cited from earlier work.

The conditions of data set [2]: in vivo; cited from earlier work.
Data set [3] addresses T2, ETA. Particulars: cited from earlier work.
For data set [4] the following is noted: in vivo; cited from earlier work. The source holds these as a separate data set.
The test system of another data set is cytochrome P450 enzymes. Particulars: in vivo; cited from earlier work.
Data set [5] is described as follows: Pharmacokinetic drug interaction study, sitaxsentan and sildenafil. Type of data set: in vivo, human. Particulars: single 100 mg sildenafil on day 7 of 100 mg sitaxsentan daily. As for the experimental part:
A pharmacokinetic drug interaction study was performed using 24 individuals. In the study, a group of 24 normal, healthy volunteers participated in two treatment periods. […] During the other treatment period, the subjects received placebo for seven days and 100 mg of VIAGRA on the seventh day. Twelve subjects were randomly assigned to each treatment period. When the subjects finished one treatment period, they were switched to the other treatment period.
Samples were drawn (in duplicate) once on days 1, 3, 5 and 6; 15 times on day 7 and once again on day 8 for each treatment period. The samples were stored at a nominal temperature of −20° C. for a duration not exceeding 38 days. All samples were analyzed with a set of calibration standards and low, medium and high concentration Quality Control samples.

The conditions of data set [6]: in vivo; cited from earlier work. This is another data set of the same source.
In a further data set the target is T3, cytochrome P450 3A4 (Homo sapiens, UniProt P08684).
T3 construct: endogenous in cells; host or cells: cultured hepatocytes
Nature of the data set: Cytochrome P450 3A4 inhibition in cultured hepatocytes. The format is in vitro ADME.

Chain of bile salt export pump (O95342 whole entry): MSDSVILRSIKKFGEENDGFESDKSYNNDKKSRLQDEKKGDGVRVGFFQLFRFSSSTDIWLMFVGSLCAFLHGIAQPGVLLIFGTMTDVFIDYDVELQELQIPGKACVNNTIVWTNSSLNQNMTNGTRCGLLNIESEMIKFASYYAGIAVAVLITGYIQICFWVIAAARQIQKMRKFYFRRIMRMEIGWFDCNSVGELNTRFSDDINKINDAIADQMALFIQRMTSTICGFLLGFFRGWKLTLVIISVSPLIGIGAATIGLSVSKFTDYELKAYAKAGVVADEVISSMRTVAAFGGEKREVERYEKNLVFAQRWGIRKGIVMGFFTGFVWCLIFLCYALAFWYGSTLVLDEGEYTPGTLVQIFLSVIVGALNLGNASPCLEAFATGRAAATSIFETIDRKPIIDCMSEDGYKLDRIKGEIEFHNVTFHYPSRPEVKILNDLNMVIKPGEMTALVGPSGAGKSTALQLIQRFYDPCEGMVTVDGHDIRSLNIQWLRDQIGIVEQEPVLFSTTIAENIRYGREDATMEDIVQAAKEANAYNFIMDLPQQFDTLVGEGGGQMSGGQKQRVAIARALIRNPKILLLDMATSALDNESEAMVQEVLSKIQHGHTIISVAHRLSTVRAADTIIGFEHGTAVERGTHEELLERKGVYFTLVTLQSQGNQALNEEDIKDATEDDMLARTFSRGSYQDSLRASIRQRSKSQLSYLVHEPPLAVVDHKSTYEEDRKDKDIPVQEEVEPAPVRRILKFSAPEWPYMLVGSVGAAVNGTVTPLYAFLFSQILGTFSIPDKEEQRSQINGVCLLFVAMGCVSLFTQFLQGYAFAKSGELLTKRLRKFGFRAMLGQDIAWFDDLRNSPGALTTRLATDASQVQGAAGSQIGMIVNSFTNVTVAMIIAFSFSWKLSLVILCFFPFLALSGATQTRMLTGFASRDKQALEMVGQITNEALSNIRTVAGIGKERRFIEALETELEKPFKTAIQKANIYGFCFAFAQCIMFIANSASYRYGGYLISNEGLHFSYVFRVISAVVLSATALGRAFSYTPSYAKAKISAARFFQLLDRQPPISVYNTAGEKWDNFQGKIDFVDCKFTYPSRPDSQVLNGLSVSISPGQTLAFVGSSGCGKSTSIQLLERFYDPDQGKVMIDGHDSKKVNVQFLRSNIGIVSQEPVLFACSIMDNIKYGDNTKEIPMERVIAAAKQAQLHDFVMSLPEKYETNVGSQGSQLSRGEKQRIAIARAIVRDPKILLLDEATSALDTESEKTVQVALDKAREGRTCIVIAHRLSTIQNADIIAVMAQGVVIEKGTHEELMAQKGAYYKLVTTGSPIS
T3 sequence (P08684 whole entry): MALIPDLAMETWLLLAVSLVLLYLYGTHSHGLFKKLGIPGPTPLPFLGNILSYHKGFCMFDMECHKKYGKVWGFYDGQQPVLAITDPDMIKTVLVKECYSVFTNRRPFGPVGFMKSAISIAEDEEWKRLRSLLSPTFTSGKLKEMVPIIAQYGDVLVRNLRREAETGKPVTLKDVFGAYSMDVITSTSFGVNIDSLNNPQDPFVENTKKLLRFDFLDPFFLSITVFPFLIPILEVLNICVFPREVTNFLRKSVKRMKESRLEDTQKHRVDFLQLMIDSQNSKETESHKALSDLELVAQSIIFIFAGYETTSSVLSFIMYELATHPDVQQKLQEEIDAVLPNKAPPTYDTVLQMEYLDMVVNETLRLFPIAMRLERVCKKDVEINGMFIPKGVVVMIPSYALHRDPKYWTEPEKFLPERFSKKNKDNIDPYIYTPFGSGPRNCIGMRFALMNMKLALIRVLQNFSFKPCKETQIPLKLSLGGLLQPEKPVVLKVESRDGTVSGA

Consider `Cc1cc2c(cc1CC(=O)c1sccc1S(=O)(=O)Nc1onc(C)c1Cl)OCO2` [Sitaxsentan], for which the Ki on ETB was above 4300 nM; on ETA [3] (read-out: Intrinsic potency to ETA (Ki)) it was 0.45 nM. Moreover, at bile salt export pump, the “Effect on bile salt” value is reported as “Does not accumulate”. Besides, the Selectivity on ETA [1] is given as 10,000. Further, the Effect on bilirubin result in data set [2] is “No effect”. For the same compound, the “Selectivity for ETA:ETB” value at ETA [3] (Table 4) is given as 6500. For the same compound, the “ETA:ETB selectivity ratio” value at ETA [3] (based upon in vitro receptor affinity ratios) was 6500. Further, in data set [4], the Metabolism result is “Through 3A4 and 2C9”. In data set [4], the t1/2 was 10 h. In the data set with cytochrome P450 enzymes, the “Induction of cytochrome P450 enzymes” value is recorded as “No induction”. Besides, the “Effect of sildenafil administration on sitaxsentan levels / pharmacokinetics” value in data set [5] (listed as sitaxsentan) is recorded as “did not alter sitaxsentan levels”.

Take `Cc1cc2c(cc1CC(=O)c1sccc1S(=O)(=O)Nc1onc(C)c1Cl)OCO2` [THELIN]: the “Selectivity as an antagonist for ETA compared to ETB” value on ETA [3] is reported as “approximately 6,500 fold”. Moreover, the Side effects result in [6] is “liver dysfunction (increased ALT and AST), headache, edema, constipation, nasal congestion and flushing”. For the same compound, the “Effect of sildenafil administration on sitaxsentan levels / pharmacokinetics” value in [5] was “does not appear to impact”. Besides, the “Cytochrome P450 3A4 inhibition” value on cytochrome P450 3A4 is “weak”.
